These are literature values, as cited in US20160220684A1, “COMPOSITION AND METHOD FOR RELIEVING PAIN AND INFLAMMATION, TREATMENT OF ERECTILE DYSFUNCTION, AND TREATMENT OF ACNE” (priority 2014, published 2016).

For this series, the system named is intractable pain. The settings on record: patients with metastatic cancer refractory to opioids; article published May 28, 2015.

`O=C(c1ccccc1)c1ccc2n1CCC2C(=O)O` (racemic) [keterolac, (±)-5-benzoyl-2,3-dihydro-1H-pyrrolizine-1-carboxylic acid, compounded with 2-amino-2-(hydroxymethyl)-1,3-propanediol]: the “analgesic effectiveness in intractable pain” value was “only effective non-opiod analgesic”.
